Results published in patent publication US10537100B2, “Substituted methylenedioxybenzyl compounds and their use as synergists” (Endura SPA, priority 2015, dated 2020).

Tests used:
[1] = target: T1, Myzus persicae resistance associated esterase, FE4 (Myzus persicae, UniProt P35502); test: Inhibition of resistance associated esterase FE4, 4-nitrophenyl acetate substrate; format: biochemical; settings: for inhibition activity compared with PBO: FE4, statement in text; for remaining activity at 10000 µM (stock): purified FE4, 2.5 μL of 10 mM in acetone, 10 min incubation, 4-nitrophenyl acetate 0.8 mM, read-out: Myzus persicae esterases - percentage of the activity remaining FE4
T1 construct: would be utilized for the purified esterases from aphids; from tissue; host or cells: aphids (Myzus persicae)
T1 sequence (P35502 24-564): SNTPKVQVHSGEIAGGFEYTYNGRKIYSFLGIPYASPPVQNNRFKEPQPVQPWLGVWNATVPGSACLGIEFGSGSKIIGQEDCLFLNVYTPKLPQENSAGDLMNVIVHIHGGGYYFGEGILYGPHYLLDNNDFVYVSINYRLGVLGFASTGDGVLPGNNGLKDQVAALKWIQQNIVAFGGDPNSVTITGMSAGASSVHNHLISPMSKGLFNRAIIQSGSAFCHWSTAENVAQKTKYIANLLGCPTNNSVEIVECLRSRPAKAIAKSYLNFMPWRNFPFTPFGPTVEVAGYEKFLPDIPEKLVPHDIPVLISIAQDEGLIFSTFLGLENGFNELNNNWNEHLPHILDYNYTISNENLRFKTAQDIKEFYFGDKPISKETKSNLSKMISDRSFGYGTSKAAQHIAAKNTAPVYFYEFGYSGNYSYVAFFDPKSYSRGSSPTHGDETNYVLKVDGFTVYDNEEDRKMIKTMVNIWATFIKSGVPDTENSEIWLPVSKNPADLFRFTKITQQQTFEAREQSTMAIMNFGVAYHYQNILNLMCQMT
Experimental: It was envisaged, therefore, that the ‘esterase interference assay’ (Khot et al., 2008) would be utilized for the purified esterases from aphids. Various esterase substrates were assessed to find one suitable of monitoring inhibition in an insect homogenate. The Myzus persicae resistance associated esterase, FE4, was used.
Initially the esterase interference assay was carried out, as being the ‘absolute’ protocol for characterising interactions between the compounds of Example 1 and Example 2 and FE4. However, since this is a protracted method, and it would not be applicable for the B. tabaci esterases, a selection of products already reported in the literature were used to compare the interference assay and the use of a model substrate.
From the literature (Philippou et al., 2013) it is known that 1-naphthyl acetate is not suitable for this assay. Instead, 4-nitrophenyl acetate was used. A 10 mM pNA stock was prepared in acetone and added to 0.02 M phosphate buffer pH 7.0 (final concentration 2 mM). The comparison was made with 6 analogues of variable efficacy.
For the assay 10 μL of purified FE4 was diluted to a total volume of 50 μL by the addition of 0.02 M phosphate buffer, pH 7.0 in individual wells of a microplate (maxisorb, NUNC). To each well, 2.5 μL of 10 mM of the compound of Example 1 and of Example 2 in acetone was added and incubated for 10 mins, with acetone only used as a control. Following incubation, 100 μL of 0.02 phosphate buffer, pH 7.0 and 100 μL of 2 mM 4-nitrophenyl acetate was added (final volume in well 250 μL, final substrate concentration 0.8 mM). Enzyme activity was read at 405 nm in a Spectramax Tmax for 5 min, with readings taken every 5 s. The rate (mOD min^−1) was calculated by the integrated software, Softmax Pro v.5.4. A PBO solution (10 mM) was prepared in the same way as a comparison.

[2] = test system: CYP6CM1 from Bemisia tabaci; test: Inhibition of recombinant oxidase enzyme (P450) CYP6CM1, 7-ethoxycoumarin O-deethylation; settings: for inhibition activity compared with PBO: CYP6CM1, statement in text; for Bemisia tabaci CYPCM1 percentage of activity remaining: recombinant enzyme 50 μL + 3 μL of 10 mM stock in acetone, 10 min incubation, 7-ethoxycoumarin
Experimental: Ability of the synergists of the invention to inhibit oxidative enzymes (P450), a major mechanism conferring resistance to xenobiotics, was measured using recombinant enzymes corresponding to CYP6CY3 from Myzus persicae and CYP6CM1 from Bemisia tabaci.
The following synergists were tested in comparison with piperonyl butoxide (PBO): • 5-n-butyl-6-((prop-2-ynyloxy)methyl)benzo[d][1,3]dioxole the compound prepared in Example 2 • 5-n-hexyl-6-((prop-2-ynyloxy)methyl)benzo[d][1,3]dioxole the compound prepared in Example 1 CYP6CM1
Substrate used was 7-ethoxycoumarin for inhibition assays as described by Ulrich and Weber (1972) and adapted to microplate format as described by De Sousa et al. (1995).
For inhibition assays, stock solutions of the compounds of Example 1 and Example 2 (10 mM) were prepared in acetone. Diluted recombinant enzyme (50 μL) was mixed with 3 μL of the above mentioned compound stock solutions, with acetone only used as a control. After 10 min incubation at room temperature, 80 μL of 0.125 mM 7-ethoxycoumarin was added, followed by 10 μL 9.6 mM NADPH (nicotinamide adenine dinucleotide phosphate) in 0.1 M sodium phosphate, pH 7.8, and O-deethylation activity monitored as above. A PBO solution (10 mM) was prepared in the same way as a comparison.

Musca domestica = test: Contact test on treated glass surfaces, synergist with cypermethrin; format: in vivo; settings: in combination with cypermethrin
Experimental: Laboratory bred Musca domestica species, 4-5 days old mixed sex imagoes derived from a field collected strain were assayed for the test. 1000 ml of test solutions were prepared diluting in water 6.06 grams of cypermethrin commercial formulation, equivalent to 0.224 g of cypermethrin per liter of insecticidal solution and a suitable amount of synergist such as to have a ratio between cypermethryn and synergists=1:13. The synergists were formulated in the form of emulsified concentrate (EC). The following amount of the formulations of synergist EC were added to the above described insecticidal solution of cypermethrin.
3.83 g of EC formulation containing 77.1% (w/w) of the compound of Example 2 (5-n-butyl-6-((prop-2-ynyloxy)methyl)benzo[d][1,3]dioxole)
3.57 g of EC formulation containing 83% (w/w) of the comparison compound 5-(but-2-ynyloxymethyl)-6-n-propyl-benzo[1,3]dioxole (EN126) corresponding to 2.95 g of the compound of the invention and of the comparison product per liter of test formulation
1 ml of each test formulation was applied to each individual grass surface of 100 cm^2 by means of a hand held pump sprayer on a scale measuring by 2 decimal precision, being the acceptable limit of divergence: +/−10%. The treated glass surfaces were left at room temperature for 24 hours after treatment and prior to be used. 40 mixed sex Musca domestica imagoes (20 males and 20 females) were selected and placed into a 500 cm^3 glass cylinders covered with an untreated glass surface until the start of the study. Five replicates were executed, altogether 200 houseflies (100 males and 100 females) were used per test formulation. At the beginning of the test, the untreated glass covering the glass cylinder was replaced with a glass surface treated with the test formulation. The exposure time was 30 minutes. After this period of time, the treated glass surfaces were removed and replaced with untreated ones. During the test water and food (water/sugar solution) were provided to the test insect inside the glass cylinders
In parallel with the test, the mortality of flies in an untreated control replicate was determined using the same conditions and methods. Throughout the control test, non-treated glass surfaces covered the glass cylinders. The maximum mortality rate allowed within the control group to consider the test representative was 10% after 24 hours. If above this value, the test was not considered representative and was repeated. During the trials, no deviance has been noted.
The test conditions were as follows: • temperature: 23-25° C. • relative humidity: min. 60% • light regime: 12 hrs dark/12 hrs natural illumination.
The reading intervals of the number of knocked down flies were: 10-20-30-40-50-60-90-120-180 minutes. Mortality was determined after 24 hours.
The efficacy was calculated according the following formula

C#CCOCc1cc2c(cc1CCCC)OCO2 [Compound of Example 2, 5-n-butyl-6-((prop-2-ynyloxy)methyl)benzo[d][1,3]dioxole]
inhibition activity compared with PBO [1]: better than PBO | remaining activity at 10000 µM (stock) [1]: 28.7% | inhibition activity compared with PBO [2]: better than PBO | Bemisia tabaci CYPCM1 percentage of activity remaining [2]: 53.48% | efficacy compared with comparison product EN126 (Musca domestica): better efficacy | knock down activity compared with comparison product EN126 (Musca domestica; clearly notable at short times): better knock down activity

C#CCOCc1cc2c(cc1CCCCCC)OCO2 [Compound of Example 1, 5-n-hexyl-6-((prop-2-ynyloxy)methyl)benzo[d][1,3]dioxole]
inhibition activity compared with PBO [1]: better than PBO | remaining activity at 10000 µM (stock) [1]: 23.1% | inhibition activity compared with PBO [2]: better than PBO | Bemisia tabaci CYPCM1 percentage of activity remaining [2]: 85.19%
